Assay results: PMC5983471 (PLoS ONE, 2018)
Converted amounts (≈) assume the structure as drawn. “And” between values parts separate entries of the source, which are not always exact repeats. Identical values can stand only once. “Also recorded” adds a separate entry of the source. Like-named read-outs stand apart in the source and are kept apart here.

Assays:
[1] = Plasma niclosamide pharmacokinetics (LCMS, non-compartmental analysis); type: in vivo, human
Method: Blood for pharmacokinetic analyses were drawn at the following time points after the first dose: 0.5 hr, 1 hr, 1.5 hr, 2 hr, 3 hr, 4 hr, 6 hr, 8 hr and on Day 15. […] After vortexing, the samples were centrifuged at 20000 x G for 10 minutes at 4°C. The supernatant was transferred to a 96-well plate and 2 μL were injected on the liquid chromatography mass spectrometry (LCMS) system. The LCMS system was an ultrapressure liquid chromatography (Agilent (Santa Clara, CA) 1290 series) coupled to an Agilent G6410B triple-quadrupole mass spectrometer. The column was an Agilent Zorbax SB-C18 2.1 mm x 150 mm x 5μ maintained at 45°C. Mobile phase A was 10 mM ammonium formate (pH = 3) and mobile phase B was acetonitrile in the ratio of 35% A: 65% B at 0.4 mL/min.

metastatic CRPC (PSA) = experiment: On-study PSA changes; type: in vivo, human
From the text: The primary objective was to assess safety.

DU145 = conditions: cited from earlier work
[2] = test system: abiraterone and/or enzalutamide-resistant models, including AR-V7+ cell lines; conditions: cited from earlier work
[3] = test system: enzalutamide-resistant, AR-V7+ C4-2B cells; conditions: co-cultured with 81.8 ng/mL; cited from earlier work
AR-V7+ CWR22Rv1 cells = conditions: 81.8 ng/mL; cited from earlier work
[4] = test system: enzalutamide-resistant LNCaP cells engineered to maintain Stat3 activation; conditions: cited from earlier work
[5] = test system: AR-V7 prostate cancer models; parameters: method as in ref 28 (S1 Protocol, Liu et al, 2014); conditions: in vitro, 48 hours exposure; ref 28 (S1 Protocol, Liu et al, 2014); cited from earlier work
[6] = test system: AR-V7 prostate cancer models; parameters: method as in ref 28,29 (S1 Protocol); conditions: combined with enzalutamide or abiraterone; ref 28,29 (S1 Protocol); cited from earlier work
[7] = published pharmacokinetics data; cited from earlier work
[8] = prior experience; ref 27,60 (S1 Protocol); cited from earlier work
[9] = ref 27,71 (S1 Protocol); cited from earlier work
[10] = rats; ref 62 (S1 Protocol, WHO/VBC/DS/88.63); cited from earlier work
[11] = Phase I dose-escalation: adverse events and dose-limiting toxicities (CTCAE v4.0)
Method: All patients were required to have mCRPC (i.e., disease progression in spite of serum testosterone ≤50 ng/dL) and had received prior abiraterone. Patients were originally required to have detectable AR-V transcripts in circulating tumor cells (CTC) as determined using the AdnaTest assay[9]. […] The primary objective was to assess safety.
We utilized the continual reassessment method (CRM) to evaluate dose-related toxicities and to determine the recommended Phase II dose[37]. We targeted a maximum of 30% of patients incurring dose-limiting toxicities (DLT) up to 30 days after the final (day-28) dose. […] Adverse events (AEs) were documented by incidence and their severity was graded according to the National Cancer Institute–Common Terminology Criteria for Adverse Events (CTCAE) version 4.0. The pharmacokinetic data underwent non-compartmental analysis using Phoenix WinNonlin version 8.0 (Certara USA, Inc; Princeton, NJ), and key pharmacokinetic parameters (e.g., Cmax, Cmin, Css and t1/2) were extracted.

[12] = first dose 500 mg PO, plasma, individual patients Pt# 1, 17, 18
[13] = first dose 500 mg PO, Pt# 1, 17, 18
[14] = first dose 1000 mg PO, plasma, individual patients Pt# 19, 20
[15] = first dose 1000 mg PO, Pt# 19, 20
[16] = AE possibly/probably related, 500 mg PO TID + enzalutamide, Pt# 1, 17, 18
[17] = AE possibly/probably related, 1000 mg PO TID + enzalutamide, Pt# 19, 20

Question: Which “patients achieving a Cmax ≥163.5 ng/mL” value ([1]; 500 mg PO TID cohort) does the source give for `O=C(Nc1ccc([N+](=O)[O-])cc1Cl)c1cc(Cl)ccc1O` [niclosamide, 2',5-dichloro-4'-nitrosalicylanilide] here?
Answer: one of three

Question: What about the “patients achieving a Cmax ≥163.5 ng/mL” value ([1]; 1000 mg PO TID cohort) of the same compound?
Answer: one of two

Question: What about the Cmax [1, 12] of the same compound?
Answer: 35.7 ng/mL and 88.3 ng/mL

Question: What about the Tmax [1, 12] of the same compound?
Answer: 6 h and 2 h and 1 h

Question: What about the “% of AUC0-∞ extrapolated” value [1, 13] of the same compound?
Answer: 26.6% and 13.7% and 17.2%

Question: And the Cmin [1, 13]?
Answer: 13.3 ng/mL and 6.92 ng/mL and 7.42 ng/mL

Question: And the Tmin [1, 13]?
Answer: 4 h and 8 h

Question: And the Cmax [1, 14]?
Answer: 149 ng/mL

Question: And the Tmax [1, 14]?
Answer: 1 h and 6 h

Question: And the “First dose AUC0-∞” value ([1]; first dose 1000 mg PO, Clast/elimination rate constant used for extrapolation, Pt# 19, 20)?
Answer: 986 ng·h/mL

Question: And the “% of AUC0-∞ extrapolated” value [1, 15]?
Answer: 36.0% and 36.2%

Question: What about the “Apparent oral clearance (clearance divided by fraction absorbed)” value [1, 15] of the same compound?
Answer: 14.9 L/hr per kg of IBW

Question: What about the Cmin [1, 15] of the same compound?
Answer: 45.5 ng/mL and 90.0 ng/mL

Question: What about the “First dose AUC0-τ” value [1, 15] of the same compound?
Answer: 629 ng·h/mL

Question: What about the Tmin [1, 15] of the same compound?
Answer: 8 h

Question: What about the Cmax ([1]; human, plasma, po, 1000 mg, first dose 1000 mg PO, plasma, individual patients Pt# 19, 20, read-out: Cmax) of the same compound?
Answer: 182 ng/mL

Question: What about the AUC(0-inf) ([1]; human, plasma, po, 1000 mg, first dose 1000 mg PO, Clast/elimination rate constant used for extrapolation, Pt# 19, 20, read-out: First dose AUC0-∞) of the same compound?
Answer: 1060 ng·h/mL

Question: And the CL/F ([1]; human, plasma, po, 1000 mg, first dose 1000 mg PO, Pt# 19, 20, read-out: Apparent oral clearance (clearance divided by fraction absorbed) (converted))?
Answer: 203 mL/min/kg

Question: What about the AUC ([1]; human, plasma, po, 1000 mg, first dose 1000 mg PO, Pt# 19, 20, read-out: First dose AUC0-τ) of the same compound?
Answer: 676 ng·h/mL

Question: And the CL/F ([1]; male, human, plasma, po, 1000 mg, all 5 patients, 500 and 1000 mg cohorts, read-out: apparent oral clearance (CL/F), range over patients)?
Answer: 152 to 630 mL/min/kg

Question: And the “PSA Day 29” value (metastatic CRPC (PSA); 1000 mg PO TID + enzalutamide, Pt# 19)?
Answer: 3009.49 ng/mL

Question: And the “PSA Change (%)” value (metastatic CRPC (PSA); Day 1 to Day 29, 1000 mg PO TID + enzalutamide, Pt# 19)?
Answer: 101.7%

Question: And the PSA declines (metastatic CRPC (PSA); all dose cohorts, niclosamide + enzalutamide)?
Answer: no PSA declines; also recorded: no evidence for declining PSA

Question: What about the clinical activity (metastatic CRPC (PSA); any patient enrolled, niclosamide + enzalutamide) of the same compound?
Answer: no evidence of clinical activity

Question: And the “IC50, decreased cell proliferation” value (DU145)?
Answer: 0.33 µg/mL (≈ 1.01 µM)

Question: What about the “concentrations that consistently inhibited cell growth” value [2] of the same compound?
Answer: ≥ 163.5 ng/mL

Question: What about the “lowest concentration inhibiting some AR-V7+ cell lines” value [2] of the same compound?
Answer: ≥ 81.8 ng/mL

Question: And the growth inhibition [3]?
Answer: growth inhibited

Question: What about the growth inhibition (AR-V7+ CWR22Rv1 cells) of the same compound?
Answer: did not demonstrate significant growth inhibition

Question: What about the “concentrations at which cells were growth inhibited” value [4] of the same compound?
Answer: ≥ 163.5 ng/mL

Question: What about the “lowest concentration inducing apoptosis / inhibiting cell line growth” value [5] of the same compound?
Answer: ≥ 0.25 µg/mL

Question: What about the “anti-tumor effect of combination” value [6] of the same compound?
Answer: synergistic

Question: What about the oral bioavailability [7] of the same compound?
Answer: poor oral bioavailability

Question: What about the “patients with gastrointestinal side effects (nausea, vomiting and stomach pain)” value [8] of the same compound?
Answer: ~ 10%

Question: And the solubility in acetone [9]?
Answer: soluble

Question: And the “solubility in ethanol, chloroform, or ether” value [9]?
Answer: sparingly soluble

Question: And the solubility in water [9]?
Answer: almost insoluble

Question: What about the “oral LD50” value [10] of the same compound?
Answer: > 5,000 mg/kg body weight

Question: What about the “patients with any toxicities deemed at least possibly related to niclosamide” value ([11]; 500 mg PO TID cohort) of the same compound?
Answer: one out of three

Question: And the “dose-limiting toxicities (DLTs)” value ([11]; 500 mg PO TID cohort, 3 patients, + enzalutamide)?
Answer: no dose-limiting toxicities; also recorded: No DLTs observed

Question: What about the tolerability ([11]; 500 mg PO TID in combination with enzalutamide) of the same compound?
Answer: well tolerated

Question: What about the “Nausea (Grade)” value ([11]; AE possibly/probably related, 500 mg PO TID + enzalutamide 160 mg daily, Pt# 1, 17, 18) of the same compound?
Answer: 1 Grade

Question: And the “Anorexia (Grade)” value [11, 16]?
Answer: 1 Grade

Question: And the “Weight loss (Grade)” value [11, 16]?
Answer: 1 Grade

Question: And the “Nausea (Grade)” value ([11]; AE possibly/probably related, 1000 mg PO TID + enzalutamide 160 mg daily, Pt# 19, 20)?
Answer: 3 Grade and 3 ^* Grade and 2 Grade

Question: What about the “Abdominal pain (Grade)” value [11, 17] of the same compound?
Answer: 3 Grade

Question: What about the “Anorexia (Grade)” value [11, 17] of the same compound?
Answer: 1 Grade

Question: And the “Colitis (Grade)” value [11, 17]?
Answer: 3 Grade and 3 ^** Grade

Question: What about the “Diarrhea (Grade)” value [11, 17] of the same compound?
Answer: 3 Grade

Question: And the “Lipase elevation (Grade)” value [11, 17]?
Answer: 2 Grade

Question: What about the “Vomiting (Grade)” value [11, 17] of the same compound?
Answer: 3 Grade

Question: What about the maximum tolerated dose ([11]; PO TID, in combination with enzalutamide 160 mg daily) of the same compound?
Answer: 500 mg
